Source: patent US10273240B2, “Cortistatin analogues, syntheses, and uses thereof” (President and Fellows of Harvard College, priority 2015, dated 2019)
Where two headings read alike, the source gives them in different places.

Columns and labels:
Format in all cases: cell-based
SKNO-1 = experiment: Cell growth assay, SKNO-1; settings: Homo sapiens
Description: (§1) All media was supplemented with 100 U/mL penicillin and 100 μg/mL streptomycin. Human cancer cell lines were grown in the following media: MV4; 11, K562, MOLM-14 in RPMI-1640, 10% FBS; SKNO-1 in RPMI-1640, 10% FBS, and 10 ng/mL GM-CSF; MV4;11 and K562 were from ATCC. SKNO-1 was from DSMZ.
(§2) Cell Culture. All media was supplemented with 100 U/mL penicillin and 100 μg/mL streptomycin. Human cancer cell lines were grown in the following media: MV4; 11, RS4; 11, K562, HEL, MOLM-14, MEG-01 in RPMI-1640, 10% FBS; SET-2 in RPMI-1640, 20% FBS; UKE-1 in RPMI-1640, 10% FBS, 10% horse serum and 1 μM hydrocortisone; SKNO-1 and TF-1 in RPMI-1640, 10% FBS, and 10 or 2 ng/mL GM-CSF, respectively; HaCaT in DMEM, 10% FBS; and HCT116 in McCoy's 5 A, 10% FBS (proliferation assay) or DMEM, 10% FBS (gene expression study). HepG2, MV4;11, RS4;11, MEG-01, TF-1, HCT116 and K562 were from ATCC. SKNO-1 was from DSMZ. HEL, UKE-1, and SET-2 were provided by Ross L. Levine and HaCaT, MV4;11-mCLP, and MOLM-14 by Van Wilson, Andrew L. Kung, and Scott A. Armstrong, respectively. MOLM-14 cells were authenticated by STR profiling and flow cytometry and all cell lines were routinely tested and found to be negative for mycoplasma.

MOLM-14 = experiment: Cell growth assay, MOLM-14; settings: Homo sapiens
Description: as §1, §2

MV4;11 = experiment: Cell growth assay, MV4;11; settings: Homo sapiens
Description: as §1, §2

K562 = experiment: Cell growth assay, K562; settings: Homo sapiens
Description: as §1, §2

RS4;11 = experiment: Cell growth assay, RS4;11; settings: Homo sapiens, RS4-11, 72 h, read-out: Mean GI50 (nM), RS4;11
Description: as §2

SET-2 = experiment: Cell growth assay, SET-2; settings: Homo sapiens, SET-2, 72 h, read-out: Mean GI50 (nM), SET-2
Description: as §2

MEG-01 = experiment: Cell growth assay, MEG-01; settings: Homo sapiens, MEG-01, 72 h, read-out: Mean GI50 (nM), MEG-01
Description: as §2

TF-1 = experiment: Cell growth assay, TF-1; settings: Homo sapiens, TF-1, 72 h, read-out: Mean GI50 (nM), TF-1
Description: as §2

HEL = experiment: Cell growth assay, HEL; settings: Homo sapiens, 72 h, read-out: Mean GI50 (nM), HEL
Description: as §2

| GI50 (SKNO-1; SKNO-1, 240 h, read-out: SKNO-1 GI50 day 10) | GI50 (MOLM-14; MOLM-14, 240 h, read-out: MOLM14 GI50 day 10) | GI50 (MV4;11; MV4-11, 240 h, read-out: MV4;11 GI50 day 10) | GI50 (K562; K562, 240 h, read-out: K562 GI50 day 10) | SMILES | GI50 (SKNO-1; SKNO-1, 72 h, I-BET151, after 3 days, read-out: Mean GI50 (nM), SKNO-1) | GI50 (MOLM-14; MOLM-14, 72 h, I-BET151, after 3 days, read-out: Mean GI50 (nM), MOLM-14) | GI50 (MV4;11; MV4-11, 72 h, I-BET151, after 3 days, read-out: Mean GI50 (nM), MV4;11) | GI50 (K562; K562, 72 h, I-BET151, after 3 days, read-out: Mean GI50 (nM), K562) | GI50 (RS4;11) | GI50 (SET-2) | GI50 (MEG-01) | GI50 (TF-1) | GI50 (HEL) |
| --- | --- | --- | --- | --- | --- | --- | --- | --- | --- | --- | --- | --- | --- |
|  |  |  |  | COc1cc2c(cc1-c1c(C)noc1C)ncc1[nH]c(=O)n([C@H](C)c3ccccn3)c12 [I-BET151] | 50 nM | 18 nM | 20 nM | 750 nM | 200 nM | 245 nM | 375 nM | 163 nM | 200 nM |
| 0.6 nM | 17.5 nM | 3.75 nM | > 1000 nM | C[C@]12CC=C3C=C4CCC(=O)NC[C@]45CC[C@]3(O5)[C@@H]1CC[C@@H]2c1ccc2ccncc2c1 [Compound 15B] |  |  |  |  |  |  |  |  |  |
